Reference: patent US20240148821A1, “PHARMACEUTICAL USE OF CYCLIC PEPTIDE COMPOUND” (CHUGAI SEIYAKU KABUSHIKI KAISHA, priority 2021, published 2024)
Numbered stars: 1 amine (or outer) side, 2 acyl side, 3 side chain; on linkers, the order of the positions; unused ones are H or OH. Bridge positions count the residues as written; N and C are the ends. Square brackets hold non-standard residues; d marks the D form. Peptide text beside a SMILES is read from it. * marks the point of attachment. NMeAbu(3,3-F2-piperidino) = CN[C@@H](CCN1CCCC(F)(F)C1)C(=O)O; hPhe(3-Cl-4-CF3) = N[C@@H](CCc1ccc(C(F)(F)F)c(Cl)c1)C(=O)O; NEtPhe(4-Cl) = CCN[C@@H](Cc1ccc(Cl)cc1)C(=O)O; X135 = O=C([C@H](Cc1cc(F)ccc1F)N[*:1])[*:2]; Phe(3-I) = N[C@@H](Cc1cccc(I)c1)C(=O)O; NMeY = CN[C@@H](Cc1ccc(O)cc1)C(=O)O; NMeCha = CN[C@@H](CC1CCCCC1)C(=O)O; NMeCba = CN[C@@H](CC1CCC1)C(=O)O; NMeChg = CN[C@H](C(=O)O)C1CCCCC1; NMeI = CC[C@H](C)[C@H](NC)C(=O)O; NMeD = CN[C@@H](CC(=O)O)C(=O)O; NMeL = CN[C@@H](CC(C)C)C(=O)O; Oxazolidin(3-yl) = C1CN(*)CO1; NMeV = CN[C@H](C(=O)O)C(C)C; d(β3hA) = C[C@@H](N)CC(=O)O; NMeAbu = CC[C@H](NC)C(=O)O; Morpholide = C1CN(*)CCO1; NMeA = CN[C@@H](C)C(=O)O; NMeAib = CNC(C)(C)C(=O)O; Nle = CCCC[C@H](N)C(=O)O; Piperidide = C1CCN(*)CC1; Pra = C#CC[C@H](N)C(=O)O; Ac5c = NC1(C(=O)O)CCCC1; Aze = O=C(O)[C@@H]1CCN1; Ac4c = NC1(C(=O)O)CCC1; NEtG = CCNCC(=O)O; CF3 = FC(F)(F)*; Sar = CNCC(=O)O

The compounds below were run on Human pancreatic cancer cell line AsPC-1 (G12D mutation Kras) (assay: AsPC-1 cell growth inhibition (AsPC-1 CGI)). Settings: read-out: AsPC-1 cell growth inhibition, 50% growth inhibitory concentration (IC50 value); 96 hours, CellTiter-Glo, values classified in ranges.
Type: cell-based
Protocol: Test compounds were serially dilated with dimethyl sulfoxide, and 200 nL was then dispensed to a U-bottom 96-well plate using Labcyte Echo. […] The cell suspension was dispensed to a. plate containing a test compound at 100 μL per well and incubated at 37° C. in a 5% carbon dioxide gas incubator. 96 hours later, 80 μL of CellTiter-Glo (Promega) was added to each well and fluorescence was measured.

| SMILES | IC50 [nM] |
| --- | --- |
| CC[C@H](C)[C@@H]1NC(=O)[C@H](CC(C)C)N(C)C(=O)C[C@@H](C(=O)N2CCOCC2)N(C)C(=O)[C@H](C2CCCCC2)N(C)C(=O)C2(CCC2)NC(=O)[C@@H]2CCCN2C(=O)[C@H](CCc2ccc(C(F)(F)F)c(Cl)c2)NC(=O)CN(C)C(=O)[C@H](CC2CCCCC2)N(C)C(=O)CN(C)C(=O)CN(C)C1=O [Compound 1875] ([NMeL]I[Sar][Sar][NMeCha][Sar][hPhe(3-Cl-4-CF3)]P[Ac4c][NMeChg][NMeD]-Morpholide; lactam N-11) | ≤ 20 |
| CC[C@H](C)[C@@H]1NC(=O)[C@H](CC2CCC2)N(C)C(=O)C[C@@H](C)NC(=O)[C@H](C(C)C)N(C)C(=O)C2(CCCC2)NC(=O)[C@@H]2CCCN2C(=O)[C@H](CCc2ccc(C(F)(F)F)c(Cl)c2)NC(=O)CN(C)C(=O)[C@H](CC2CCCCC2)N(C)C(=O)CN(C)C(=O)CN(C)C1=O [Compound 230] (cyclo([Ac5c][NMeV][d(β3hA)][NMeCba]I[Sar][Sar][NMeCha][Sar][hPhe(3-Cl-4-CF3)]P)) | > 500 |
| CC[C@H](C)[C@@H]1NC(=O)[C@H](C)N(C)C(=O)C[C@@H](C(=O)N2CCCCC2)N(C)C(=O)[C@H](C(C)C)N(C)C(=O)C2(CCCC2)NC(=O)[C@H](CCN2CCCC(F)(F)C2)N(C)C(=O)[C@H](CCc2ccc(C(F)(F)F)c(Cl)c2)NC(=O)CN(C)C(=O)[C@H](CC2CCCCC2)N(C)C(=O)[C@@H]2CCN2C(=O)[C@H](C)N(C)C1=O [Compound 682] ([NMeA]I[NMeA][Aze][NMeCha][Sar][hPhe(3-Cl-4-CF3)][NMeAbu(3,3-F2-piperidino)][Ac5c][NMeV][NMeD]-Piperidide; lactam N-11) | > 500 |
| C#CC[C@@H]1NC(=O)[C@H](Cc2cccc(I)c2)NC(=O)CN(C)C(=O)[C@H](Cc2ccc(OC(F)(F)F)cc2)N(C)C(=O)CN(C)C(=O)CN(C)C(=O)[C@H]([C@@H](C)CC)NC(=O)[C@H](CC(C)C)N(C)C(=O)C[C@@H](C(=O)N2CCCCC2)N(C)C(=O)[C@H](CC(C)C)NC(=O)C(C)(C)N(C)C1=O [Compound 1219] ([NMeL]I[Sar][Sar][NMeY](CF3)[Sar][Phe(3-I)][Pra][NMeAib]L[NMeD]-Piperidide; lactam N-11) | > 500 |
| CC[C@H](C)[C@@H]1NC(=O)[C@H](C)N(C)C(=O)C[C@@H](C(=O)N2CCCCC2)N(C)C(=O)[C@H](C(C)C)N(C)C(=O)C2(CCCC2)NC(=O)[C@@H]2CCCN2C(=O)[C@H](CCc2ccc(C(F)(F)F)c(Cl)c2)NC(=O)CN(C)C(=O)[C@H](CC2CCCCC2)N(C)C(=O)[C@@H]2CCCN2C(=O)CN(C)C1=O [Compound 1121] ([NMeA]I[Sar]P[NMeCha][Sar][hPhe(3-Cl-4-CF3)]P[Ac5c][NMeV][NMeD]-Piperidide; lactam N-11) | > 500 |
| CCCC[C@@H]1NC(=O)[C@H](Cc2cc(F)ccc2F)NC(=O)CN(C)C(=O)[C@H](Cc2ccc(OC)cc2)N(C)C(=O)[C@@H]2CCN2C(=O)[C@H](C)N(C)C(=O)[C@H]([C@@H](C)CC)NC(=O)[C@H](CC)N(C)C(=O)C[C@@H](C(=O)N2CCCCC2)N(C)C(=O)[C@H](CC(C)C)NC(=O)C(C)(C)N(C)C1=O [Compound 1268] ([NMeAbu]I[NMeA][Aze][NMeY](Me)[Sar][X135][Nle][NMeAib]L[NMeD]-Piperidide; lactam N-11) | > 500 |
| CCCC[C@@H]1NC(=O)[C@H](Cc2cccc(I)c2)NC(=O)CN(C)C(=O)[C@H](Cc2ccc(Cl)cc2)N(CC)C(=O)CN(C)C(=O)CN(C)C(=O)[C@H]([C@@H](C)CC)NC(=O)[C@H](CC(C)C)N(C)C(=O)C[C@@H](C(=O)N2CCCCC2)N(C)C(=O)[C@H](CC(C)C)NC(=O)C(C)(C)N(C)C1=O [Compound 423] ([NMeL]I[Sar][Sar][NEtPhe(4-Cl)][Sar][Phe(3-I)][Nle][NMeAib]L[NMeD]-Piperidide; lactam N-11) | > 500 |
| CC[C@H](C)[C@@H]1NC(=O)[C@H](CC(C)C)N(C)C(=O)C[C@@H](C(=O)N2CCOC2)NC(=O)[C@H]([C@@H](C)CC)N(C)C(=O)C2(CCCC2)NC(=O)[C@@H]2CCCN2C(=O)[C@H](CCc2ccc(C(F)(F)F)c(Cl)c2)NC(=O)CN(C)C(=O)[C@H](CC2CCCCC2)N(C)C(=O)CN(C)C(=O)CN(C)C1=O [Compound 1247] ([NMeL]I[Sar][Sar][NMeCha][Sar][hPhe(3-Cl-4-CF3)]P[Ac5c][NMeI]D-{Oxazolidin(3-yl)}; lactam N-11) | > 500 |
| CC[C@H](C)[C@@H]1NC(=O)[C@H](CC(C)C)N(C)C(=O)C[C@@H](C)NC(=O)[C@H](C(C)C)N(C)C(=O)C2(CCCC2)NC(=O)[C@@H]2CCCN2C(=O)[C@H](CCc2ccc(C(F)(F)F)c(Cl)c2)NC(=O)CN(C)C(=O)[C@H](CC2CCCCC2)N(C)C(=O)CN(C)C(=O)CN(CC)C1=O [Compound 210] (cyclo([Ac5c][NMeV][d(β3hA)][NMeL]I[NEtG][Sar][NMeCha][Sar][hPhe(3-Cl-4-CF3)]P)) | > 500 |
